From patent US11407711B2, “Benzamide compound and use thereof” (METISA BIOTECHNOLOGY CO., LTD., priority 2018, dated 2022)
Where two headings read alike, the source gives them in different places.

Experiments:
Assay type in all cases: in vivo
[1] = tested on: Chilo suppressalis; experiment: Insecticidal activity against Chilo suppressalis (spray on rice seedlings, stems fed to larvae)
Description: (§1) The compound to be tested was dissolved by a mixed solvent of acetone/methanol (1:1), and then diluted by water containing 0.1% (wt) Tween 80 to the required concentration.
(§2) An Airbrush spray method was adopted for the determination of the activity, with armyworm, Plutella xylostella and Chilo suppressalis as targets.
Determination method: 1) preparation of rice seedlings: rice was cultivated in small plastic cups (diameter: 4.5 cm and height: 4 cm) at a constant temperature room (temperature: 26-28° C., relative humidity: 60-80% around and illumination: 16 hL:8 hD), after the rice grew to a 4-5 leaf stage, vigorous and uniform-growth rice seedlings were selected and treated with an insecticide, 3 repeats for each treatment. 2) Preparation of pests for test: 3rd-instar larvaes of Chilo suppressalis fed continuously in the room. 3) Inoculation of pests on rice stems by spray. The whole plants of the rice seedlings were sprayed by a spray method uniformly, with the dose of 15 ml for each treatment. The blank control was treated first, and the above operation was repeated in an order of lower to higher test concentration. After sprayed, rice seedlings were placed in the shade to dry the insecticide liquor, and then stalks about 5 cm above the basal part of the stems were cut to be fed to the pests for test. Glass petri dishes (diameter: […]) were prepared, cushioned by filter paper at the bottom thereof, and subjected to water addition for moisturizing; about 20 pieces of rice stems were put in each dish and inoculated with 10 larvaes; then the petri dishes were closed by non-woven fabrics and placed in a constant temperature room for culture. The number of survivals was surveyed 3 d after administration.

[2] = tested on: armyworm; experiment: Insecticidal activity against armyworm (Airbrush spray on maize blade segments); conditions: 72 h, read-out: fatality rate against armyworm
Description: as §1, §2
Determination method: maize blades were cut into 2 cm (length) segments; with the pressure of Airbrush spray being 10 psi (about 0.7 kg/cm^2), both sides of each blade segment were sprayed with the amount of 0.5 ml. After dried in the shade, each segment was inoculated with 10 3rd-instar larvaes, 3 repeats for each segment. And then, the treated segments were put into an observation room (25° C., relative humidity: 60-70%) for cultivation; the number of the survivals was surveyed 1 d, 2 d and 3 d after administration, and then the death rate was calculated.

[3] = tested on: Plutella xylostella; experiment: Insecticidal activity against Plutella xylostella (Airbrush spray on cabbage leaf discs)
Description: as §1, §2
Determination method: cabbage blades were punched into 2 cm (diameter) leaf discs by a puncher; with the pressure of Airbrush spray being 10 psi (about 0.7 kg/cm^2), both sides of each leaf disc were sprayed with the amount of 0.5 ml. After dried in the shade, each leaf disc was inoculated with 10 3rd-instar larvaes, 3 repeats for each leaf disc. And then, the treated leaf discs were put into an observation room (25° C., relative humidity: 60-70%) for cultivation; the number of the survivals was surveyed 1 d, 2 d and 3 d after administration, and then the death rate was calculated.

[4] = Chilo suppressalis, 72 h, read-out: fatality rate against Chilo suppressalis
[5] = Plutella xylostella, foliar, 72 h, read-out: Fatality rate (%, 3 d after administration) 0.5 mg/L, Table 73, 0.5 mg/L, 3 d after administration
[6] = Plutella xylostella, foliar, 72 h, read-out: Fatality rate (%, 3 d after administration) 1 mg/L, Table 73, 1 mg/L, 3 d after administration
[7] = Plutella xylostella, foliar, 72 h, read-out: Fatality rate (%, 3 d after administration) 10 mg/L, Table 71, 10 mg/L, 3 d after administration
[8] = Plutella xylostella, foliar, 72 h, read-out: fatality rate against Plutella xylostella, 0.5 mg/L, 3 d after administration
[9] = Plutella xylostella, foliar, 72 h, read-out: fatality rate against Plutella xylostella, 1 mg/L, 3 d after administration
[10] = Chilo suppressalis, 72 h, 4 mg/L, survivals surveyed 3 d after administration, read-out: fatality rate against Chilo suppressalis
[11] = Chilo suppressalis, 72 h, 40 mg/L, survivals surveyed 3 d after administration, read-out: fatality rate against Chilo suppressalis
[12] = 0.1 mg/L, 3 d after administration, 3rd-instar larvae
[13] = 0.5 mg/L, 3 d after administration, 3rd-instar larvae
[14] = Plutella xylostella, foliar, 72 h, 1 mg/L, 3 d after administration, read-out: fatality rate against Plutella xylostella
[15] = Plutella xylostella, foliar, 72 h, Table 71, 10 mg/L, 3 d after administration, read-out: Fatality rate (%, 3 d after administration) 10 mg/L

Row | SMILES | pest or weed control at 4 µg/mL [1, 4] [%] | pest or weed control at 40 µg/mL [1, 4] [%] | pest or weed control at 0.1 µg/mL [2] [%] | pest or weed control at 0.5 µg/mL [2] [%] | pest or weed control at 0.5 µg/mL [3, 5] [%] | pest or weed control at 1 µg/mL [3, 6] [%] | pest or weed control at 10 µg/mL [3, 7] [%] | pest or weed control at 0.5 µg/mL [3, 8] [%] | pest or weed control at 1 µg/mL [3, 9] [%] | pest or weed control at 4 µg/mL [1, 10] [%] | pest or weed control at 40 µg/mL [1, 11] [%] | pest or weed control at 0.1 µg/mL [2, 12] [%] | pest or weed control at 0.5 µg/mL [2, 13] [%] | pest or weed control at 1 µg/mL [3, 14] [%] | pest or weed control at 10 µg/mL [3, 15] [%] | further results
1 | N#CCN(C(=O)c1cccc(NC(=O)c2ccccc2)c1F)c1c(Br)cc(C(F)(C(F)(F)F)C(F)(F)F)cc1Br [Compound 16.321] | ≥ 90 | ≥ 90 | ≥ 90 | ≥ 90 | 100 | 100 | 100 | ≥ 90 | ≥ 90 | – | – | – | – | – | – | –
2 | N#CCN(C(=O)c1cccc(NC(=O)c2ccccc2)c1F)c1c(Cl)cc(C(F)(C(F)(F)F)C(F)(F)F)cc1Cl [Compound 17.321] | – | – | – | – | – | – | – | – | – | ≥ 90 | ≥ 90 | ≥ 90 | ≥ 90 | ≥ 90 | 100 | –
3 | Cc1cc(C(F)(C(F)(F)F)C(F)(F)F)cc(Br)c1N(CC#N)C(=O)c1cccc(NC(=O)c2ccccc2)c1F [Compound 20.321] | – | – | – | – | – | – | – | – | – | – | ≥ 90 | – | ≥ 90 | ≥ 90 | 100 | pest or weed control at 1 µg/mL ([3]; Plutella xylostella, foliar, 72 h, Table 72, 1 mg/L, 3 d after administration, read-out: Fatality rate (%, 3 d after administration) 1 mg/L): 93.9%; Fatality rate (%, 3 d after administration) 5 mg/L ([3]; Table 72, 5 mg/L, 3 d after administration): 100%
4 | N#CCN(C(=O)c1cccc(NC(=O)c2ccccc2)c1F)c1c(Cl)cc(C(F)(C(F)(F)F)C(F)(F)F)cc1Br [Compound 21.321] | – | – | – | – | – | – | – | – | – | ≥ 90 | ≥ 90 | ≥ 90 | ≥ 90 | ≥ 90 | 100 | –
5 | CN(C(=O)c1ccccc1)c1cccc(C(=O)N(CC#N)c2c(Br)cc(C(F)(C(F)(F)F)C(F)(F)F)cc2Br)c1F [Compound 30.321] | ≥ 90 | ≥ 90 | ≥ 90 | ≥ 90 | 100 | 100 | 100 | ≥ 90 | ≥ 90 | – | – | – | – | – | – | pest or weed control at 1 µg/mL [1, 4]: ≥ 90%; Fatality rate (%, 3 d after administration) 1.25 mg/L ([1]; Table 77, 1.25 mg/L, 3 d after administration): 93.5%; Fatality rate (%, 3 d after administration) 2.5 mg/L ([1]; Table 77, 2.5 mg/L, 3 d after administration): 100%; Fatality rate (%, 3 d after administration) 5 mg/L ([1]; Table 77, 5 mg/L, 3 d after administration): 100%; pest or weed control at 0.05 µg/mL [2]: ≥ 90%; pest or weed control at 0.5 µg/mL ([3]; Plutella xylostella, foliar, 72 h, read-out: Fatality rate (%, 3 d after administration) 0.5 mg/L, Table 74, 0.5 mg/L, 3 d after administration): 100%; pest or weed control at 0.05 µg/mL ([3]; Plutella xylostella, foliar, 72 h, read-out: fatality rate against Plutella xylostella, 0.05 mg/L, 3 d after administration): ≥ 90%; Fatality rate (%, 3 d after administration) 0.05 mg/L ([3]; Table 74, 0.05 mg/L, 3 d after administration): 100%; Fatality rate (%) 1 d after administration ([3]; Table 75, fast-acting efficacy, dose 0.5 mg/L, 1 d after administration): 90%; Fatality rate (%) 2 d after administration ([3]; Table 75, fast-acting efficacy, dose 0.5 mg/L, 2 d after administration): 100%; Fatality rate (%) 3 d after administration ([3]; Table 75, fast-acting efficacy, dose 0.5 mg/L, 3 d after administration): 100%
6 | N#CCN(C(=O)c1ccccc1)c1cccc(C(=O)N(CC#N)c2c(Br)cc(C(F)(C(F)(F)F)C(F)(F)F)cc2Br)c1F [Compound 58.321] | ≥ 90 | ≥ 90 | ≥ 90 | ≥ 90 | 98 | 100 | 100 | ≥ 90 | ≥ 90 | – | – | – | – | – | – | –
